Results: patent US20230382889A1 (Volastra Therapeutics, Inc., priority 2022, published 2023)

Molecular target: hKIF18A (1-374) (Homo sapiens (Human), UniProt Q8NI77)
Assay: Inhibition of KIF18A microtubule-dependent ATPase activity (ADP-Glo)
Format: biochemical
Conditions: 4 nM hKIF18A (1-374)
Experimental: Test compounds were plated in a 3× dilution scheme in a 384-well plate. Assay buffer: 80 mM PIPES (pH 6.9), 1 mM MgCl2, 75 mM KCl, 1 mM EGTA, 1 mM DTT, 0.01% BSA, 0.005% Tween-20, 1 μM Taxol in H2O. […] After incubation at room temperature for 30 min, 2.5 μL of microtubule mix was added [0.2 mg/mL pre-formed microtubules, 2.0 mM ATP in assay buffer], the plate was centrifuged for 30 s and then incubated at 28° C. for 60 min. 5 μL of Promega® ADP-Glo Max R1 was added, the plate was centrifuged for 30 s, and the mixture incubated for 4 h at room temperature. 10 μL of Promega® ADP-Glo Max R2 was added, the plate centrifuged for 30 s, and incubated for 60 min at room temperature. Luminescence was measured with an Envision plate reader, and % Inhibition was calculated for each well as: ([max−min]−[test−min])/[max−min]. IC50 values were calculated from concentration vs. % Inhibition data via a four-parameter variable slope model.

hKIF18A (1-374), sequence (Q8NI77 1-374): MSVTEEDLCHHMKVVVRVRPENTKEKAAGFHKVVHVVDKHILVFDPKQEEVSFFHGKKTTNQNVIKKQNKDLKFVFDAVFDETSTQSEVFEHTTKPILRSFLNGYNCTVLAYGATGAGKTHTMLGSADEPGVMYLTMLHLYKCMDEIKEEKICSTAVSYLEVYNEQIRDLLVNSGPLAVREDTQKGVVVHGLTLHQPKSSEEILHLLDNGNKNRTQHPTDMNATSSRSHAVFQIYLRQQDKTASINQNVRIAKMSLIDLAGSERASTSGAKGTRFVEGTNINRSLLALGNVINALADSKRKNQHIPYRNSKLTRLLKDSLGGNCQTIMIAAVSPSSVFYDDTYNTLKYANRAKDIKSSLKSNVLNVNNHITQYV

Compound	IC50 [nM]
Cc1cc(-c2cn(-c3ccc(NS(C)(=O)=O)cc3N3CCC4(CC3)CC4)nn2)nc(N2CCC(F)(F)CC2)n1 [Compound 21, N-(4-(4-(2-(4,4-difluoropiperidin-1-yl)-6-methylpyrimidin-4-yl)-1H-1,2,3-triazol-1-yl)-3-(6-azaspiro[2.5]octan-6-yl)phenyl)methanesulfonamide]	32
CCS(=O)(=O)Nc1ccc(-n2cc(-c3cc(C)cc(C(O)C4CCCC4)n3)nn2)c(N2CCC3(CC2)CC3)c1 (stereo not shown) [Compound 138, N-(4-(4-(6-(cyclopentyl(hydroxy)methyl)-4-methylpyridin-2-yl)-1H-1,2,3-triazol-1-yl)-3-(6-azaspiro[2.5]octan-6-yl)phenyl)ethanesulfonamide]	26
CS(=O)(=O)Nc1ccc(-n2cc(-c3ccc(F)c(N4CCC(F)(F)CC4)n3)nn2)c(N2CCC3(CC2)CC3)c1 [Compound 149, N-(4-(4-(6-(4,4-difluoropiperidin-1-yl)-5-fluoropyridin-2-yl)-1H-1,2,3-triazol-1-yl)-3-(6-azaspiro[2.5]octan-6-yl)phenyl)methanesulfonamide]	21
CCS(=O)(=O)Nc1ccc(-c2cn(-c3cc(C)cc(N4CCC(F)(F)CC4)n3)nn2)c(N2CCC3(CC2)CC3)c1 [Compound 108, N-(4-(1-(6-(4,4-difluoropiperidin-1-yl)-4-methylpyridin-2-yl)-1H-1,2,3-triazol-4-yl)-3-(6-azaspiro[2.5]octan-6-yl)phenyl)ethanesulfonamide]	63
CS(=O)(=O)Nc1ccc(-n2cc(-c3cccc(N4CC5(CCO5)C4)n3)nn2)c(N2CCC3(CC2)CC3)c1 [Compound 58, N-(4-(4-(6-(1-oxa-6-azaspiro[3.3]heptan-6-yl)pyridin-2-yl)-1H-1,2,3-triazol-1-yl)-3-(6-azaspiro[2.5]octan-6-yl)phenyl)methanesulfonamide]	41
CS(=O)(=O)Nc1ccc(-n2cc(-c3cccc(N4CC5CC(C4)O5)n3)nn2)c(N2CCC3(CC2)CC3)c1 [Compound 55, N-(4-(4-(6-(6-oxa-3-azabicyclo[3.1.1]heptan-3-yl)pyridin-2-yl)-1H-1,2,3-triazol-1-yl)-3-(6-azaspiro[2.5]octan-6-yl)phenyl)methanesulfonamide]	29
Cc1cc(-c2cnc(-c3ccc(NS(C)(=O)=O)cc3N3CCC4(CC3)CC4)[nH]2)nc(N2CCC(F)(F)CC2)c1 [Compound 28, N-(4-(5-(6-(4,4-difluoropiperidin-1-yl)-4-methylpyridin-2-yl)-1H-imidazol-2-yl)-3-(6-azaspiro[2.5]octan-6-yl)phenyl)methanesulfonamide]	45
Cc1cc(-c2cn(-c3ccc(NS(=O)(=O)CCO)cc3N3CCC4(CC3)CC4)nn2)nc(N2CCC(C(F)F)C2)n1 (stereo not shown) [Compound 103, N-(4-(4-(2-(3-(difluoromethyl)pyrrolidin-1-yl)-6-methylpyrimidin-4-yl)-1H-1,2,3-triazol-1-yl)-3-(6-azaspiro[2.5]octan-6-yl)phenyl)-2-hydroxyethane-1-sulfonamide]	20
O=S(=O)(CCO)Nc1ccc(-c2ncc(-c3cccc(N4CCC(F)(F)CC4)n3)[nH]2)c(N2CCC3(CC2)CC3)c1 [Compound 35, N-(4-(5-(6-(4,4-difluoropiperidin-1-yl)pyridin-2-yl)-1H-imidazol-2-yl)-3-(6-azaspiro[2.5]octan-6-yl)phenyl)-2-hydroxyethane-1-sulfonamide]	27
O=S(=O)(CCO)Nc1ccc(-c2cn(-c3cnn(C4CCC(F)(F)CC4)c3)nn2)c(N2CCC3(CC2)CC3)c1 [Compound 166, N-(4-(1-(1-(4,4-difluorocyclohexyl)-1H-pyrazol-4-yl)-1H-1,2,3-triazol-4-yl)-3-(6-azaspiro[2.5]octan-6-yl)phenyl)-2-hydroxyethane-1-sulfonamide]	2800
CS(=O)(=O)Nc1ccc(-n2cc(-c3cccc(N4CCC(F)(F)CC4)n3)nn2)c(N2CC3CC3C2)c1 (stereo not shown) [Compound 165, N-(3-(3-azabicyclo[3.1.0]hexan-3-yl)-4-(4-(6-(4,4-difluoropiperidin-1-yl)pyridin-2-yl)-1H-1,2,3-triazol-1-yl)phenyl)methanesulfonamide]	283

Other lines, results leading:

IC50 [nM]	Compound
3.8	O=C(O)c1cc(-c2cn(-c3ccc(NS(=O)(=O)CCO)cc3N3CCC4(CC3)CC4)nn2)nc(N2CCC(F)(F)CC2)n1 [Compound 158, 2-(4,4-difluoropiperidin-1-yl)-6-(1-(4-((2-hydroxyethyl)sulfonamido)-2-(6-azaspiro[2.5]octan-6-yl)phenyl)-1H-1,2,3-triazol-4-yl)pyrimidine-4-carboxylic acid]
4.6	CCS(=O)(=O)Nc1ccc(-n2cc(-c3ccc(C(O)C4CCCC4)o3)nn2)c(N2CCC3(CC2)CC3)c1 (stereo not shown) [Compound 123, N-(4-(4-(5-(cyclopentyl(hydroxy)methyl)furan-2-yl)-1H-1,2,3-triazol-1-yl)-3-(6-azaspiro[2.5]octan-6-yl)phenyl)ethanesulfonamide]
3.4	CS(=O)(=O)Nc1ccc(-n2cc(-c3cncc(N4CCC(F)(F)CC4)n3)nn2)c(N2CCC3(CC2)CC3)c1 [Compound 63, N-(4-(4-(6-(4,4-difluoropiperidin-1-yl)pyrazin-2-yl)-1H-1,2,3-triazol-1-yl)-3-(6-azaspiro[2.5]octan-6-yl)phenyl)methanesulfonamide]
20	O=S(=O)(CCO)Nc1ccc(-n2cc(-c3ccc(F)c(C4=CCC(F)(F)CC4)n3)nn2)c(N2CCC3(CC2)CC3)c1 [Compound 162, N-(4-(4-(6-(4,4-difluorocyclohex-1-en-1-yl)-5-fluoropyridin-2-yl)-1H-1,2,3-triazol-1-yl)-3-(6-azaspiro[2.5]octan-6-yl)phenyl)-2-hydroxyethane-1-sulfonamide]
8.1	Cc1cc(-c2cn(-c3ccc(NS(=O)(=O)CCO)cc3N3CCC4(CC3)CC4)nn2)nc(N2CC3CC3C2)n1 (stereo not shown) [Compound 99, N-(4-(4-(2-(3-azabicyclo[3.1.0]hexan-3-yl)-6-methylpyrimidin-4-yl)-1H-1,2,3-triazol-1-yl)-3-(6-azaspiro[2.5]octan-6-yl)phenyl)-2-hydroxyethane-1-sulfonamide]
17	CC1CCN(c2cc(NS(=O)(=O)CCO)ccc2-c2cn(-c3ccc(F)c(N4CCC(F)(F)CC4)n3)nn2)CC1 [Compound 141, N-(4-(1-(6-(4,4-difluoropiperidin-1-yl)-5-fluoropyridin-2-yl)-1H-1,2,3-triazol-4-yl)-3-(4-methylpiperidin-1-yl)phenyl)-2-hydroxyethane-1-sulfonamide]
16	O=S(=O)(CCO)Nc1ccc(-n2cc(-c3ccc(F)c(N4CC5CC5C4)n3)nn2)c(N2CCC3(CC2)CC3)c1 (stereo not shown) [Compound 153, N-(4-(4-(6-(3-azabicyclo[3.1.0]hexan-3-yl)-5-fluoropyridin-2-yl)-1H-1,2,3-triazol-1-yl)-3-(6-azaspiro[2.5]octan-6-yl)phenyl)-2-hydroxyethane-1-sulfonamide]
8.7	CC1CCN(c2cc(NS(C)(=O)=O)ccc2-n2cc(-c3cccc(N4CCC(F)(F)CC4)n3)nn2)CC1 [Compound 18, N-(4-(4-(6-(4,4-difluoropiperidin-1-yl)pyridin-2-yl)-1H-1,2,3-triazol-1-yl)-3-(4-methylpiperidin-1-yl)phenyl)methanesulfonamide]
8.6	O=S(=O)(CCO)Nc1ccc(-c2cn(-c3cccc(N4CCC(F)(F)CC4)c3)nn2)c(N2CCC3(CC2)CC3)c1 [Compound 65, N-(4-(1-(3-(4,4-difluoropiperidin-1-yl)phenyl)-1H-1,2,3-triazol-4-yl)-3-(6-azaspiro[2.5]octan-6-yl)phenyl)-2-hydroxyethane-1-sulfonamide]
8.3	CS(=O)(=O)Nc1ccc(-n2cc(-c3cccc(N4CCOCC4)n3)nn2)c(N2CCC3(CC2)CC3)c1 [Compound 54, N-(4-(4-(6-morpholinopyridin-2-yl)-1H-1,2,3-triazol-1-yl)-3-(6-azaspiro[2.5]octan-6-yl)phenyl)methanesulfonamide]
13	CC1CN(c2cccc(-c3cn(-c4ccc(NS(C)(=O)=O)cc4N4CCC5(CC4)CC5)nn3)n2)CCO1 (stereo not shown) [Compound 56, N-(4-(4-(6-(2-methylmorpholino)pyridin-2-yl)-1H-1,2,3-triazol-1-yl)-3-(6-azaspiro[2.5]octan-6-yl)phenyl)methanesulfonamide]
14	CS(=O)(=O)Nc1ccc(-n2cc(-c3cccc(N4CCC(F)(F)CC4)n3)nn2)c(N2CCC(C(F)F)CC2)c1 [Compound 19, N-(3-(4-(difluoromethyl)piperidin-1-yl)-4-(4-(6-(4,4-difluoropiperidin-1-yl)pyridin-2-yl)-1H-1,2,3-triazol-1-yl)phenyl)methanesulfonamide]
14	Cc1cc(-c2cn(-c3ccc(NS(=O)(=O)CCO)cc3N3CCC4(CC3)CC4)nn2)nc(CN2CC(F)(F)C2)n1 [Compound 152, N-(4-(4-(2-((3,3-difluoroazetidin-1-yl)methyl)-6-methylpyrimidin-4-yl)-1H-1,2,3-triazol-1-yl)-3-(6-azaspiro[2.5]octan-6-yl)phenyl)-2-hydroxyethane-1-sulfonamide]
6	O=S(=O)(CCO)Nc1ccc(-n2cc(-c3cncc(OC4CCCC4)n3)nn2)c(N2CCC3(CC2)CC3)c1 [Compound 150, N-(4-(4-(6-(cyclpentyloxy)pyrazin-2-yl)-1H-1,2,3-triazol-1-yl)-3-(6-azaspiro[2.5]octan-6-yl)phenyl)-2-hydroxyethane-1-sulfonamide]
